Measurements taken from publication PMC4303209, “A novel phosphatidylinositol 3-kinase (PI3K) inhibitor directs a potent FOXO-dependent, p53-independent cell cycle arrest phenotype characterized by the differential induction of a subset of FOXO-regulated genes” (Breast Cancer Research : BCR, 2014).

Test system: MCF-7 breast cancer cells
Assay: Microarray gene expression analysis (Agilent whole human genome 4 x 44K; compound vs DMSO, LIMMA log2 fold change)
Format: cell-based
Conditions: cell cycle genes

## Oc1cccc(-c2nc(N3CCOCC3)c3oc4ncccc4c3n2)c1 [PI-103]
Gene 6776
  STAT5A log2FC: 0.39
Gene 6777
  STAT5B log2FC: 0.11
Gene 6790
  AURKA log2FC: -0.02
Gene 6793
  STK10 log2FC: -0.32
Gene 6795
  AURKC log2FC: 0.0218
Gene 6839
  SUV39H1 log2FC: -0.50
Gene 6867
  TACC1 log2FC: 0.0342
Gene 6868
  ADAM17 log2FC: 0.53
Gene 6872
  TAF1 log2FC: 0.15
Gene 6886
  TAL1 log2FC: -0.57
Gene 6926
  TBX3 log2FC: -0.69
Gene 6929
  TCF3 log2FC: 0.0643
Gene 6990
  DYNLT3 log2FC: -0.24
Gene 6993
  DYNLT1 log2FC: -0.03
Gene 7013
  TERF1 log2FC: 0.38
Gene 7014
  TERF2 log2FC: -0.16
Gene 7023
  TFAP4 log2FC: 0.39
Gene 7026
  NR2F2 log2FC: 0.34
Gene 7027
  TFDP1 log2FC: -0.56
Gene 7029
  TFDP2 log2FC: 0.41
Gene 7040
  TGFB1 log2FC: -0.44
Gene 7057
  THBS1 log2FC: -0.91
Gene 7124
  TNF log2FC: -1.87
Gene 7128
  TNFAIP3 log2FC: -0.85
Gene 7153
  TOP2A log2FC: 0.91
Gene 7155
  TOP2B log2FC: 0.99
Gene 7156
  TOP3A log2FC: -0.05
Gene 7157
  TP53 log2FC: 0.0569
Gene 7159
  TP53BP2 log2FC: 0.35
Gene 7175
  TPR log2FC: 0.74
Gene 7248
  TSC1 log2FC: 0.42
Gene 7249
  TSC2 log2FC: -0.11
Gene 7251
  TSG101 log2FC: 0.39
Gene 7272
  TTK log2FC: 1.59
Gene 7283
  TUBG1 log2FC: -0.33
Gene 7311
  UBA52 log2FC: 0.31
Gene 7314
  UBB log2FC: 0.0362
Gene 7316
  UBC log2FC: 0.33
Gene 7320
  UBE2B log2FC: 0.65
Gene 7321
  UBE2D1 log2FC: 0.50
Gene 7324
  UBE2E1 log2FC: 0.0118
Gene 7329
  UBE2I log2FC: -0.30
Gene 7465
  WEE1 log2FC: 0.0429
Gene 7474
  WNT5A log2FC: 0.13
Gene 7480
  WNT10B log2FC: -0.49
Gene 7483
  WNT9A log2FC: 0.04
Gene 7508
  XPC log2FC: 0.59
Gene 7516
  XRCC2 log2FC: -0.60
Gene 7532
  YWHAG log2FC: -0.88
Gene 7564
  ZNF16 log2FC: 0.34
Gene 7709
  ZBTB17 log2FC: 0.30
Gene 7803
  PTP4A1 log2FC: -0.61
Gene 7813
  EVI5 log2FC: 0.44
Gene 7840
  ALMS1 log2FC: 0.65
Gene 8013
  NR4A3 log2FC: 0.34
Gene 8021
  NUP214 log2FC: -0.41
Gene 8061
  FOSL1 log2FC: -2.53
Gene 8065
  CUL5 log2FC: -0.23
Gene 8089
  YEATS4 log2FC: 1.06
Gene 8091
  HMGA2 log2FC: -1.51
Gene 8208
  CHAF1B log2FC: -0.0543
Gene 8218
  CLTCL1 log2FC: -0.03
Gene 8239
  USP9X log2FC: 0.62
Gene 8243
  SMC1A log2FC: 0.14
Gene 8317
  CDC7 log2FC: 0.32
Gene 8438
  RAD54L log2FC: -0.18
Gene 8450
  CUL4B log2FC: 0.75
Gene 8451
  CUL4A log2FC: 0.38
Gene 8454
  CUL1 log2FC: 0.21
Gene 8462
  KLF11 log2FC: 1.20
Gene 8481
  OFD1 log2FC: 0.89
Gene 8502
  PKP4 log2FC: 0.15
Gene 8522
  GAS7 log2FC: -0.00153
Gene 8525
  DGKZ log2FC: -0.37
Gene 8536
  CAMK1 log2FC: -0.0329
Gene 8555
  CDC14B log2FC: 0.10
Gene 8558
  CDK10 log2FC: 0.17
Gene 8567
  MADD log2FC: 0.75
Gene 8655
  DYNLL1 log2FC: -1.05
Gene 8658
  TNKS log2FC: 0.82
Gene 8678
  BECN1 log2FC: 0.35
Gene 8697
  CDC23 log2FC: 0.30
Gene 8738
  CRADD log2FC: -0.08
Gene 8812
  CCNK log2FC: -0.50
Gene 8815
  BANF1 log2FC: -0.32
Gene 8851
  CDK5R1 log2FC: -0.33
Gene 8870
  IER3 log2FC: -2.26
Gene 8877
  SPHK1 log2FC: -0.42
Gene 8881
  CDC16 log2FC: 0.66
Gene 8900
  CCNA1 log2FC: 0.11
Gene 8914
  TIMELESS log2FC: 0.20
Gene 8929
  PHOX2B log2FC: -0.0327
Gene 8930
  MBD4 log2FC: 0.29
Gene 8945
  BTRC log2FC: 0.17
Gene 8976
  WASL log2FC: 0.10
Gene 9025
  RNF8 log2FC: -0.06
Gene 9055
  PRC1 log2FC: 0.34
Gene 9099
  USP2 log2FC: -0.07
Gene 9101
  USP8 log2FC: 0.76
Gene 9126
  SMC3 log2FC: 1.35
Gene 9156
  EXO1 log2FC: -0.12
Gene 9181
  ARHGEF2 log2FC: -0.51
Gene 9183
  ZW10 log2FC: 0.27
Gene 9184
  BUB3 log2FC: 0.44
Gene 9221
  NOLC1 log2FC: -0.67
Gene 9236
  CCPG1 log2FC: 1.09
Gene 9261
  MAPKAPK2 log2FC: -0.19
Gene 9271
  PIWIL1 log2FC: 0.0443
Gene 9400
  RECQL5 log2FC: 0.48
Gene 9475
  ROCK2 log2FC: 0.20
Gene 9491
  PSMF1 log2FC: -0.34
Gene 9525
  VPS4B log2FC: 0.64
Gene 9575
  CLOCK log2FC: 0.03
Gene 9587
  MAD2L1BP log2FC: -0.27
Gene 9639
  ARHGEF10 log2FC: 0.19
Gene 9656
  MDC1 log2FC: -0.21
Gene 9662
  CEP135 log2FC: 0.43
Gene 9665
  KIAA0430 log2FC: 0.91
Gene 9696
  CROCC log2FC: -0.11
Gene 9700
  ESPL1 log2FC: 0.72
Gene 9702
  CEP57 log2FC: 1.20
Gene 9724
  UTP14C log2FC: 0.24
Gene 9735
  KNTC1 log2FC: 0.58
Gene 9770
  RASSF2 log2FC: 0.56
Gene 9793
  CKAP5 log2FC: 0.44
Gene 9814
  SFI1 log2FC: 0.17
Gene 9821
  RB1CC1 log2FC: 1.48
Gene 9833
  MELK log2FC: 0.25
Gene 9837
  GINS1 log2FC: -0.84
Gene 9863
  MAGI2 log2FC: 0.33
Gene 9874
  TLK1 log2FC: 0.44
Gene 9883
  POM121 log2FC: -0.58
Gene 9903
  KLHL21 log2FC: 0.49
Gene 9937
  DCLRE1A log2FC: 0.44
Gene 9960
  USP3 log2FC: 0.29
Gene 9984
  THOC1 log2FC: 0.38
Gene 9988
  DMTF1 log2FC: 0.44
Gene 9994
  CASP8AP2 log2FC: 0.61
Gene 10015
  PDCD6IP log2FC: 0.60
Gene 10018
  BCL2L11 log2FC: 0.09
Gene 10036
  CHAF1A log2FC: -0.38
Gene 10039
  PARP3 log2FC: 0.48
Gene 10040
  TOM1L1 log2FC: 0.60
Gene 10051
  SMC4 log2FC: 0.76
Gene 10097
  ACTR2 log2FC: -0.39
Gene 10111
  RAD50 log2FC: 0.41
Gene 10112
  KIF20A log2FC: 0.59
Gene 10133
  OPTN log2FC: 0.73
Gene 10142
  AKAP9 log2FC: 1.37
Gene 10197
  PSME3 log2FC: -1.22
Gene 10198
  MPHOSPH9 log2FC: 0.40
Gene 10200
  MPHOSPH6 log2FC: -0.88
Gene 10296
  MAEA log2FC: -0.11
Gene 10298
  PAK4 log2FC: -0.42
Gene 10361
  NPM2 log2FC: -0.11
Gene 10362
  HMG20B log2FC: 0.52
Gene 10370
  CITED2 log2FC: 2.31
